The source of these data is PubChem BioAssay (NCI).

Some test systems named below: EKVX NSCLC; UO-31 renal; M14 melanoma; RPMI-8226 leukemia; UACC-62 melanoma; SNB-75 CNS; HCC-2998 colon; BT-549 breast; MCF7 breast; T-47D breast.
Experiment in all cases: growth of human tumour cells (NCI), 48 h

Each structure is given as a SMILES string. Several values for one entry are separate records, joined by “and”; a condition that tells them apart may be missing. Equal entries are not always repeated.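 Briefly, cells in 96-well plates were exposed to five compound concentrations for 48 h, and endpoints were estimated by linear interpolation. The concentration for 50% growth inhibition is given as GI50. TGI marks complete inhibition of growth.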

For the compound `C=C[C@]1(C)CCC2=C(CCC3C2(C)CCC[C@@]3(C)COC(C)=O)C1` (some centres undefined), the TGI in the test with EKVX NSCLC is 36.8 µM; in the test on UO-31 renal, 33.4 µM; with M14 melanoma, 40.3 µM; in the test on RPMI-8226 leukemia, 35.6 µM; with UACC-62 melanoma, 45.8 µM; with SNB-75 CNS, 36.7 µM. Further, the TGI in the test on HCC-2998 colon was found to be 31.8 µM.

For `O=C1CCSC2=C1SCc1sccc12`, the TGI in the test on EKVX NSCLC, with UO-31 renal, in the test with M14 melanoma, with RPMI-8226 leukemia, in the test with UACC-62 melanoma and with SNB-75 CNS was more than 100 µM each time. Further, the TGI with HCC-2998 colon was more than 100 µM.

`CCNC(=O)O/N=C1\CCC2[C@@H]3CC=C4C[C@@H](OC5CCCCO5)CC[C@]4(C)C3CC[C@]12C` (some centres undefined): the TGI in the test on EKVX NSCLC worked out at 5.78 µM; in the test on UO-31 renal, 2.85 µM; in the test on RPMI-8226 leukemia it was 4.8 µM; in the test on UACC-62 melanoma it was 3.94 µM; in the test on HCC-2998 colon, 8.51 µM.

In the case of `CC(C)NC(=O)CCN(C(=O)O)S(=O)(=O)c1ccc(NC(=O)c2ccccc2)cc1`, the TGI was more than 100 µM in the test with EKVX NSCLC; more than 100 µM with UO-31 renal; more than 100 µM in the test with M14 melanoma; more than 71.5 µM with RPMI-8226 leukemia; more than 82.7 µM with UACC-62 melanoma; more than 100 µM in the test on SNB-75 CNS. The compound also gave a TGI in the test on HCC-2998 colon of more than 100 µM.

As for `Cc1ccccc1-n1c2nc(=O)n(C)c(=O)c-2nc2ccccc21`, the TGI came out at 24.3 µM with EKVX NSCLC; 66.1 µM in the test on UO-31 renal; 25.4 µM in the test on M14 melanoma; 44.9 µM in the test with RPMI-8226 leukemia; 9.78 µM in the test on UACC-62 melanoma; 39.9 µM in the test on SNB-75 CNS. Also, in the test on HCC-2998 colon, the TGI is 24.2 µM.

For `Cc1ccc(NC(=O)/C(Cl)=C(/Cl)C(=O)O)cc1`, the TGI in the test on EKVX NSCLC turned out to be 31.2 µM; in the test on UO-31 renal, 31.8 µM; with M14 melanoma, 28.7 µM; with RPMI-8226 leukemia, 49.8 µM; with UACC-62 melanoma, 29.7 µM; with SNB-75 CNS it was 34.1 µM. Further, the TGI with HCC-2998 colon came to 34.3 µM.

Regarding `CC1(c2ccccc2)CC(c2cccc([N+](=O)[O-])c2)=NO1` (centres undefined), the TGI in the test on UO-31 renal, in the test on M14 melanoma, in the test with RPMI-8226 leukemia, with SNB-75 CNS and in the test on HCC-2998 colon was more than 100 µM throughout.

`COc1ccc2nc3cc(Cl)ccc3c(Sc3ccc([N+](=O)[O-])cc3)c2c1`: the GI50 is more than 100 µM in the test on EKVX NSCLC; more than 100 µM in the test with UO-31 renal; more than 100 µM in the test on M14 melanoma; more than 100 µM with UACC-62 melanoma; more than 10 µM in the test with SNB-75 CNS. Moreover, the TGI with EKVX NSCLC, in the test on UO-31 renal, with M14 melanoma, with RPMI-8226 leukemia, in the test with UACC-62 melanoma and in the test on SNB-75 CNS was more than 100 µM in each case. Further, the TGI in the test with HCC-2998 colon is more than 10 µM.

On to `COC(=O)C(Cc1nc2ccccc2nc1C)/C(=N\NC(N)=O)C(=O)Nc1cccc([N+](=O)[O-])c1` (centres undefined), for which the TGI with EKVX NSCLC, in the test with UO-31 renal, with M14 melanoma, in the test on RPMI-8226 leukemia, in the test with UACC-62 melanoma and with SNB-75 CNS was more than 100 µM in each case. Also, the TGI with HCC-2998 colon was more than 100 µM.

Take `Cc1cc(C)nc(NS(=O)(=O)c2ccc(Nc3c4ccc(Cl)cc4nc4c(C(=O)NCCN(C)C)cccc34)cc2)n1`: the TGI in the test with EKVX NSCLC, in the test with UO-31 renal, in the test on M14 melanoma, with RPMI-8226 leukemia, in the test on UACC-62 melanoma and in the test with SNB-75 CNS was more than 100 µM throughout. This compound also gave a TGI in the test with HCC-2998 colon of more than 100 µM.

Consider `OCc1ccc(N2CCc3ccccc3C2)cc1Cl`, for which the GI50 with UO-31 renal was 8.28 µM; in the test with BT-549 breast, 17.7 µM; in the test on MCF7 breast it was less than 0.01 µM; in the test with M14 melanoma it was 34.1 µM; in the test on RPMI-8226 leukemia, 0.617 µM; in the test with UACC-62 melanoma, less than 0.01 µM. Further, the GI50 in the test with SNB-75 CNS is 15.9 µM; in the test with HCC-2998 colon it was 1.15 µM. Also, the TGI in the test on UO-31 renal was 55.8 µM; with BT-549 breast, 40.8 µM; with MCF7 breast it was 55.3 µM; with M14 melanoma it was more than 100 µM; with RPMI-8226 leukemia it was 87.9 µM; in the test on UACC-62 melanoma, 0.144 µM. In addition, the TGI was 57.7 µM with SNB-75 CNS and 7.11 µM in the test on HCC-2998 colon.

On to `COc1cc([N+](=O)[O-])c(OC)cc1-c1nc2sc(Cl)cn2c1/C=N/NC1=NCCN1`, for which the GI50 in the test with EKVX NSCLC was 2.33 µM; with UO-31 renal, 0.966 µM; in the test with BT-549 breast, 2.69 µM; with MCF7 breast it was 0.431 µM; in the test with M14 melanoma it was 1.39 µM; with HCC-2998 colon it was 0.597 µM. Further, the TGI was 5.64 µM in the test on EKVX NSCLC; 5.95 µM in the test with BT-549 breast; more than 100 µM in the test with MCF7 breast; 2.8 µM with M14 melanoma; 1.22 µM in the test with HCC-2998 colon.

For the compound `COc1ccc(C2C(C)C(=O)C(C)C(c3ccc(OC)cc3)N2N=O)cc1` (centres undefined), the TGI is more than 1000 µM in the test with EKVX NSCLC; more than 1000 µM with UO-31 renal; more than 1000 µM in the test on MCF7 breast; 750 µM and > 732 µM with M14 melanoma; 713 µM in the test with T-47D breast; more than 1000 µM with RPMI-8226 leukemia. Moreover, the TGI in the test with UACC-62 melanoma was more than 750 µM; in the test on SNB-75 CNS, 20.4 µM and 80 µM and 57.8 µM; with HCC-2998 colon it was more than 1000 µM. Moreover, the GI50 was more than 750 µM with RPMI-8226 leukemia, more than 750 µM in the test with UACC-62 melanoma, 5.93 µM in the test on SNB-75 CNS and more than 1000 µM in the test on HCC-2998 colon.

With `CC#CC1C2CCCC1(CSc1ccccc1)NC(=O)O2` (centres undefined), the TGI with EKVX NSCLC, with UO-31 renal, in the test on M14 melanoma, with RPMI-8226 leukemia, with UACC-62 melanoma and in the test with SNB-75 CNS was more than 100 µM each time. The compound further displayed a TGI in the test with HCC-2998 colon of more than 100 µM.

On to `C=C(C(=C)P(=S)(c1ccccc1)c1ccccc1)P(=S)(c1ccccc1)c1ccccc1`, for which the TGI in the test on EKVX NSCLC, with M14 melanoma, with RPMI-8226 leukemia, with UACC-62 melanoma, in the test on SNB-75 CNS and with HCC-2998 colon was more than 100 µM throughout.
